Here are results for 29 molecules from patent EP4000606A1, “COMPOUNDS FOR CORONAVIRUS INFECTION TREATMENT AND/OR PREVENTION” (priority 2020, dated 2022).

For this assay, the system named is SARS-CoV-2. Description: microbe, parasite or virus in culture. The class given is cell-based.
Setting [1] is: Severe acute respiratory syndrome coronavirus 2, 120 h.
Where [2] appears, read: confluence of SARS-CoV-2 infected VeroE6-EGFP cells after test compound treatment compared to control wells, 5 days.

Read-outs that look alike come from different tables or passages of the source. Peptide text beside a SMILES is read from it. * marks the point of attachment. Cbz = O=C(OCc1ccccc1)*

Take `C[C@H]1CCC/C=C/[C@@H]2C[C@H](O)C[C@H]2[C@H](O)/C=C/C(=O)O1` (relative stereo) [compound 47, (1R,2S,7S,13S,15S)-2,15-Dihydroxy-7-methyl-6-oxabicyclo[11.3.0]hexadeca-3(E),11(E)-dien-5-one [1S-(1R*,2E,6R*,10E,11aR*,13R*,14a S*)]-1,6,7,8,9,11a,12,13,14,14a-Decahydro-1,13-dihydroxy-6-methyl-4H-cyclopent[f]oxacyclotridecin-4-one]: the Emax (Severe acute respiratory syndrome coronavirus 2, 120 h, 5 days, read-out: Maximum confluence reached (%)) came to 122%.

On to `CCC(C/C=C/c1ccccc1)(c1ccccc1)N(C)CC1CC1` (single isomer, unassigned; (+)) [compound 89, (+)-N-(Cyclopropylmethyl)-N-[1-ethyl-1,4-diphenyl-3(E)-butenyl]-N-methylamine], for which, where the note is “5 days”, the “Maximum confluence reached (%)” value stood at 58.34%. Besides, half-maximal inhibition under setting [1] (IC50) was put at 11.2 µM.

In the case of `CN(Cc1cnc2nc(N)nc(N)c2n1)c1ccc(C(=O)N[C@@H](CCC(=O)O)C(=O)O)cc1` [compound 1, N-[4-[N-(2,4-Diaminopteridin-6-ylmethyl)-N-methylamino]benzoyl]-L-glutamic acid], the concentration for half-maximal inhibition (IC50) (Severe acute respiratory syndrome coronavirus 2, 120 h, half maximal concentration able to recover the cytopathic effect of infection, VeroE6-EGFP cells, 0.01 MOI, 5 days, 8 concentrations, read-out: IC50) was 0.05 µM. Besides, the “Maximum confluence reached (%)” value under setting [2] is given as 64%.

As for `COc1cc(NCc2ccc3nc(N)nc(N)c3c2C)cc(OC)c1OC` [compound 2, 2,4-Diamino-5-methyl-6-[(3,4,5-trimethoxyanilino)methyl]quinaz oline 5-Methyl-6-[[(3,4,5-trimetoxyphenyl)amino]methyl]-2,4-quinazolinediamine], the “Maximum confluence reached (%)” value (5 days) is reported as 78.23%.

On to `C#CCC(Cc1cnc2nc(N)nc(N)c2n1)c1ccc(C(=O)N[C@@H](CCC(=O)O)C(=O)O)cc1` (stereo partly drawn) [compound 3, N-[4-[2-(2,4-Diaminopteridin-6-yl)-1-(2-propynyl)ethyl]benzoyl]-L-glutamic acid 10-Propargyl-10-deazaaminopterin], for which the “Maximum confluence reached (%)” value (5 days) was determined as 76.65%.

`Nc1nc(N)c2nc(CNc3ccc(C(=O)N[C@@H](CCC(=O)O)C(=O)O)cc3)cnc2n1` [compound 10, N-[4-(2,4-diamino-6-pteridinylmethylamino)benzolyl]-L-glutamic acid]: for the setting “5 days”, the “Maximum confluence reached (%)” value is 72.54%.

For `CN(C)c1cccc(-c2c3c(=O)n(-c4ccccc4Cl)[nH]c3cc(=O)n2C)c1` [compound 13, 2-(2-Chlorophenyl)-4-[3-(dimethylamino)phenyl]-5-methyl-1H-pyrazolo[4,3-c]pyridine-3,6(2H,5H)-dione], the “Maximum confluence reached (%)” value (5 days) was found to be 101.52%. For the same molecule, the half-inhibitory concentration (IC50) under setting [1] came to 7.57 µM.

Regarding `Nc1ncc(-c2ccnc(Nc3ccncc3)n2)c(CC2CC2)n1` [compound 20, 4'-(Cyclopropylmethyl)-N2-(pyridin-4-yl)-4,5'-bipyrimidine-2,2'-diamine], the “Maximum confluence reached (%)” value (5 days) was 98.17%.

Regarding `C/C(=C\c1ccc(C(=O)O)cc1)c1ccc2c(c1)C(C)(C)CCC2(C)C` [compound 26, 4-[2-(5,5,8,8-Tetramethyl-5,6,7,8-tetrahydronaphthalen-2-yl)-1(E)-propenyl]benzoic acid], the “Maximum confluence reached (%)” value (5 days) is 105.73%. Moreover, the concentration for half-maximal inhibition (IC50) under setting [1] was 33.7 µM.

With `c1cncc(CN2CCC(n3ncc4c(N5CCOCC5)nc(-c5ccc6[nH]ccc6c5)nc43)CC2)c1` [compound 32, 6-(1H-Indol-5-yl)-4-(4-morpholinyl)-1-[1-(pyridin-3-ylmethyl)piperidin-4-yl]-1H-pyrazolo[3,4-d]pyrimidine], the “Maximum confluence reached (%)” value (5 days) is 67.69%.

Turning to `COc1ccc2c(c1)[C@]1(C[C@H]1c1ccc3c(/C=C/c4ccc(CN5C[C@@H](C)O[C@@H](C)C5)cc4)n[nH]c3c1)C(=O)N2.O=C(O)/C=C/C(=O)O` [compound 33, (1R,2S)-2-[3-[(E)-2-[4-[(cis-2,6-Dimethylmorpholin-4-yl)methyl]phenyl]vinyl]-1H-indazol-6-yl]-5'-methoxyspiro[cyclopropane-1,3'-indol]-2'(1'H)-one (2E)-but-2-enedioate], the “Maximum confluence reached (%)” value (5 days) came to 105.46%.

As to `CNCc1ccc(-c2cc(-c3nc(-c4ccc(S(=O)(=O)C(C)C)cc4)cnc3N)on2)cc1` [compound 34, 3-[3-[4-[(Methylamino)methyl]phenyl]-1,2-oxazol-5-yl]-5-[4-(propan-2-ylsulfonyl)phenyl]pyrazin-2-amine], the “Maximum confluence reached (%)” value (5 days) turned out to be 99.21%.

For `COc1cc2c(N3CCN(C(=O)Nc4ccc(OC(C)C)cc4)CC3)ncnc2cc1OCCCN1CCCCC1` [compound 35, N-(4-Isopropoxyphenyl)-4-[6-methoxy-7-[3-(1-piperidinyl)propoxy]quinazolin-4-yl]piperazine-1-carboxamide], where the note is “5 days”, the “Maximum confluence reached (%)” value is given as 80.09%.

With `CN1[C@@H]2CC[C@H]1C[C@@H](OC(=O)c1cc(Cl)cc(Cl)c1)C2` [compound 36, 1alphaH,3alpha,5alphaH-Tropan-3-yl-3,5-dichlorobenzoate; 3,5-Dichlorobenzoic acid endo-8-methyl-8-azabicyclo[3.2.1]oct-3-yl ester], the “Maximum confluence reached (%)” value (5 days) was 69.05%. The half-inhibitory concentration (IC50) under setting [1] came out at 43.9 µM.

For the molecule `CC1=NN(c2ccc(C)c(C)c2)C(=O)/C1=N\Nc1cccc(-c2cccc(C(=O)O)c2)c1O` [compound 37, 3'-[2(Z)-[1-(3,4-Dimethylphenyl)-3-methyl-5-oxo-4,5-dihydro-1H-pyrazol-4-ylidene]hydrazino]-2'-hydroxybiphenyl-3-carboxylic acid], the “Maximum confluence reached (%)” value (5 days) was 63.17%. The IC50 under setting [1] was 58.1 µM.

Take `Cc1nc(N)nc(N)c1-c1ccc(Cl)c(Cl)c1` [compound 41, 5-(3,4-Dichlorophenyl)-6-methylpyrimidine-2,4-diamine]: the “Maximum confluence reached (%)” value (5 days) came to 58.02%.

On to `CC(C)c1cnn2c(NCc3ccccc3)cc(NCCCCCCN)nc12` [compound 48, N5-(6-Aminohexyl)-N7-benzyl-3-isopropylpyrazolo[1,5-a]pyrimidine-5,7-diamine], for which the “Maximum confluence reached (%)” value (5 days) is 47.31%.

On to `CC1(N2CCC(n3c([C@@H]4CCCNC4)nc4ccccc43)CC2)CCCCCCC1` [compound 51, 1-[1-(1-Methylcyclooctyl)piperidin-4-yl]-2-[3(R)-piperidinyl]-1H-benzimidazole], for which, for the setting “5 days”, the “Maximum confluence reached (%)” value was determined as 57.77%.

For the molecule `CC(C)C[C@@H](C=O)NC(=O)[C@H](CC(C)C)NC(=O)[C@H](CC(C)C)NC(=O)OCc1ccccc1` [compound 52, Benzyloxycarbonyl-L-leucyl-L-leucyl-L-leucinal] (Cbz-Leu-Leu-Leu-aldehyde), the “Maximum confluence reached (%)” value (5 days) is reported as 82.81%.

For `Cc1[nH]c(/C=C2\C(=O)Nc3ccc(S(=O)(=O)Cc4c(Cl)cccc4Cl)cc32)c(C)c1C(=O)N1CCC[C@@H]1CN1CCCC1` [compound 53, 5-(2,6-Dichlorobenzylsulfonyl)-3(Z)-[3,5-dimethyl-4-[2(R)-(pyrrolidin-1-ylmethyl)pyrrolidin-1-ylcarbonyl]-1H-pyrrol-2-ylmethylene]-2,3-dihydro-1H-indol-2-one], under “5 days”, the “Maximum confluence reached (%)” value amounted to 95.69%.

Take `C[C@@H]1COCCN1c1cc(=O)n2c(n1)N(Cc1cncc(Cl)c1)[C@H](C(F)(F)F)CC2` [compound 54, (8S)-9-[(5-Chloropyridin-3-yl)methyl]-2-[(3R)-3-methylmorpholin-4-yl]-8-(trifluoromethyl)-6,7,8,9-tetrahydro-4H-pyrimido[1,2-a]pyrimidin-4-one]: under setting [2], the “Maximum confluence reached (%)” value came to 89%.

As to `O=C(NCCN1CCC2(CC1)C(=O)NCN2c1cccc(F)c1)c1ccc2ccccc2c1` [compound 56, N-[2-[1-(3-Fluorophenyl)-4-oxo-1,3,8-triazaspiro[4.5]dec-8-yl]ethyl]naphthalen-2-carboxamide], the “Maximum confluence reached (%)” value (5 days) was 98.46%.

Consider `Cc1cc(O[C@@H](CCC(F)(F)F)c2ccc(C(=O)NCCC(=O)O)cc2)cc(C)c1-c1ccc(C(C)(C)C)cc1` [compound 57, N-(4-[(1S)-1-[(4'-tert-Butyl-2,6-dimethylbiphenyl-4-yl)oxy]-4,4,4-trifluorobutyl]benzoyl)-beta-alanine], for which, for the setting “5 days”, the “Maximum confluence reached (%)” value was determined as 39.53%.

As to `COc1cc2c(NC3CCN(C4CCCCC4)CC3)nc(N3CCCN(C(C)C)CC3)nc2cc1OCCCN1CCCCC1` [compound 59, N-(1-Cyclohexylpiperidin-4-yl)-6-methoxy-7-[3-(1-piperidinyl)propoxy]-2-[4-(propan-2-yl)perhydro-1,4-diazepin-1-yl]quinazolin-4-amine], the “Maximum confluence reached (%)” value (5 days) came out at 80.08%.

Regarding `CC(C)(O)CNc1ncc(-c2ccnc(Nc3ccnc(Cl)c3)n2)c(CC2CC2)n1` [compound 60, 1-[[2-[(2-chloro-4-pyridinyl)amino]-4'-(cyclopropylmethyl) [4,5'-bipyrimidin]-2'-yl]amino]-2-methyl-2-propanol], the “Maximum confluence reached (%)” value (5 days) turned out to be 45.62%.

Turning to `COc1ccccc1[C@H](Cn1c(=O)n(C(C)(C)C(=O)O)c(=O)c2c(C)c(-c3ncco3)sc21)OC1CCOCC1` [compound 61, 2-[1-[(2R)-2-(2-Methoxyphenyl)-2-(tetrahydro-2H-pyran-4-yloxy)ethyl]-5-methyl-6-(1,3-oxazol-2-yl)-2,4-dioxo-1,4-dihydrothieno[2,3-d]pyrimidin-3(2H)-yl]-2-methylpropanoic acid], the “Maximum confluence reached (%)” value (5 days) is recorded as 78.18%.

Turning to `Cc1ccc(C(=O)Nc2cccc(C(F)(F)F)c2)cc1Nc1nc(-c2cccnc2)nc2c1cnn2C` [compound 62, 4-methyl-3-{[1-methyl-6-(3-pyridinyl)-1H-pyrazolo[3,4-d]pyrimidin-4-yl]amino}-N-[3-(trifluoromethyl)phenyl]benzamide], the “Maximum confluence reached (%)” value is given as 88.43%.

Regarding `Cn1nc(C(C)(C)C)cc1C(=O)N[C@@H](Cc1cccc(Cl)c1)C(=O)NCC#N` [compound 63, 3-tert-butyl-N-{(1S)-1-(3-chlorobenzyl)-2-[(cyanomethyl)amino]-2-oxoethyl}-1-methyl-1H-pyrazole-5-carboxamide], under “5 days”, the “Maximum confluence reached (%)” value worked out at 96.18%.

`N#Cc1cccc(C#N)c1-c1nc2c3ccc(Cl)cc3c3ccccc3c2[nH]1` [compound 64, 2-(6-Chloro-1H-phenanthro[9,10-d]imidazol-2-yl)benzene-1,3-dicarbonitrile]: under “5 days”, the “Maximum confluence reached (%)” value was 98.48%.

A word on the IC50: it is the concentration at which inhibition is half-maximal.
